PubChem BioAssay AID248 (DTP/NCI, 2004)
Values joined by “and” are separate entries in the source; they are usually repeats but may differ in a detail not shown here. Identical values can stand only once. Inconclusive results and toxic doses are left out. Rule as the data show it: active = T/C of 150% or more; inactive = T/C below 125%.

System: L1210 leukemia ip in BDF1 mice, survival T/C
Experiment: NCI In Vivo Anticancer Drug Screen. Data for tumor model L1210 Leukemia (intraperitoneal) in B6D2F1 (BDF1) mice
Conditions: endpoint: mean survival time, higher = longer survival
Outline: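 Transplanted-tumor mice were given test agent; controls received vehicle only. Survival readings from the two groups were divided (treated over control).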

[1] = dose: 50.0 mg/kg/injection, schedule: Q01DX009 (ip), vehicle: Klucel (hydroxypropylcellulose) (HPC)
[2] = dose: 100.0 mg/kg/injection, schedule: Q04DX002 (ip), vehicle: Klucel (hydroxypropylcellulose) (HPC)
[3] = dose: 200.0 mg/kg/injection, schedule: Q04DX002 (ip), vehicle: Klucel (hydroxypropylcellulose) (HPC)
[4] = dose: 100.0 mg/kg/injection, schedule: Q04DX003 (ip), vehicle: saline with Tween-80
[5] = dose: 200.0 mg/kg/injection, schedule: Q04DX003 (ip), vehicle: saline with Tween-80
[6] = dose: 100.0 mg/kg/injection, schedule: Q01DX001 (ip), vehicle: saline with Tween-80
[7] = dose: 200.0 mg/kg/injection, schedule: Q01DX001 (ip), vehicle: saline with Tween-80
[8] = dose: 400.0 mg/kg/injection, schedule: Q01DX001 (ip), vehicle: saline with Tween-80
[9] = dose: 100.0 mg/kg/injection, schedule: Q04DX003 (ip), vehicle: Klucel (hydroxypropylcellulose) (HPC)
[10] = dose: 200.0 mg/kg/injection, schedule: Q04DX003 (ip), vehicle: Klucel (hydroxypropylcellulose) (HPC)
[11] = dose: 400.0 mg/kg/injection, schedule: Q04DX003 (ip), vehicle: Klucel (hydroxypropylcellulose) (HPC)
[12] = dose: 100.0 mg/kg/injection, schedule: Q04DX002 (ip), vehicle: saline with Tween-80
[13] = dose: 200.0 mg/kg/injection, schedule: Q04DX002 (ip), vehicle: saline with Tween-80
[14] = dose: 400.0 mg/kg/injection, schedule: Q04DX002 (ip), vehicle: saline with Tween-80

Measured: T/C

CCCNC(=O)Sc1ccc(Cl)cc1
inactive: dose: 12.5 mg/kg/injection, schedule: Q01DX001 (ip), vehicle: Klucel (hydroxypropylcellulose) (HPC) 100 % of control | dose: 12.5 mg/kg/injection, schedule: Q01DX009 (ip), vehicle: Klucel (hydroxypropylcellulose) (HPC) 95 % of control and 110 % of control | dose: 25.0 mg/kg/injection, schedule: Q01DX001 (ip), vehicle: Klucel (hydroxypropylcellulose) (HPC) 95 % of control | dose: 25.0 mg/kg/injection, schedule: Q01DX009 (ip), vehicle: Klucel (hydroxypropylcellulose) (HPC) 97 % of control and 106 % of control | dose: 50.0 mg/kg/injection, schedule: Q01DX001 (ip), vehicle: Klucel (hydroxypropylcellulose) (HPC) 94 % of control | [1] 98 % of control | [2] 96 % of control | [3] 93 % of control and 86 % of control

CNc1nc(Cl)cc2nc(Cl)cn12
inactive: dose: 100.0 mg/kg/injection, schedule: Q01DX001 (ip), vehicle: saline 94 % of control | dose: 200.0 mg/kg/injection, schedule: Q01DX001 (ip), vehicle: saline 96 % of control | dose: 400.0 mg/kg/injection, schedule: Q01DX001 (ip), vehicle: saline 96 % of control

COC(=O)N1C(C)=CC=CC=C1C
inactive: dose: 12.5 mg/kg/injection, schedule: Q04DX002 (ip), vehicle: Klucel (hydroxypropylcellulose) (HPC) 94 % of control | dose: 25.0 mg/kg/injection, schedule: Q04DX002 (ip), vehicle: Klucel (hydroxypropylcellulose) (HPC) 88 % of control | dose: 50.0 mg/kg/injection, schedule: Q04DX002 (ip), vehicle: Klucel (hydroxypropylcellulose) (HPC) 98 % of control | [2] 100 % of control

Cc1cc(C)cc(C(C)C)c1
inactive: [4] 96 % of control | [5] 96 % of control | dose: 400.0 mg/kg/injection, schedule: Q04DX003 (ip), vehicle: saline with Tween-80 93 % of control

Cc1nc2ccc(-c3ccccc3)cc2s1
inactive: [6] 111 % of control | [7] 108 % of control | [8] 103 % of control

O=C(c1ccccc1)C1(c2ccccc2)CCP(c2ccccc2)(c2ccccc2)(c2ccccc2)O1 (centres undefined)
inactive: dose: 15.0 mg/kg/injection, schedule: Q01DX001 (ip), vehicle: carboxymethylcellulose (CMC) 93 % of control | dose: 30.0 mg/kg/injection, schedule: Q01DX001 (ip), vehicle: carboxymethylcellulose (CMC) 95 % of control | dose: 60.0 mg/kg/injection, schedule: Q01DX001 (ip), vehicle: carboxymethylcellulose (CMC) 96 % of control

CCOC(=O)C1CCC(NC(=O)c2ccccc2)CC1 (centres undefined)
inactive: dose: 100.0 mg/kg/injection, schedule: Q01DX001 (ip), vehicle: Klucel (hydroxypropylcellulose) (HPC) 93 % of control | [9] 100 % of control | dose: 200.0 mg/kg/injection, schedule: Q01DX001 (ip), vehicle: Klucel (hydroxypropylcellulose) (HPC) 93 % of control | [10] 98 % of control | dose: 400.0 mg/kg/injection, schedule: Q01DX001 (ip), vehicle: Klucel (hydroxypropylcellulose) (HPC) 93 % of control | [11] 94 % of control

Cn1c2ccccc2c2nnc(SCCN3CCOCC3)nc21
inactive: [12] 97 % of control | [13] 93 % of control | [14] 101 % of control

NC(=O)NC1C=CC=CC=C1
inactive: dose: 100.0 mg/kg/injection, schedule: Q01DX001 (ip), vehicle: acetone 107 % of control | dose: 200.0 mg/kg/injection, schedule: Q01DX001 (ip), vehicle: acetone 93 % of control | dose: 400.0 mg/kg/injection, schedule: Q01DX001 (ip), vehicle: acetone 98 % of control

C(=N\N1CCN(/N=C/c2ccccc2)C1c1ccccc1)/c1ccccc1
inactive: [9] 106 % of control | [10] 94 % of control | [11] 101 % of control

CC1(C)COC(C2CC(=O)c3ccccc3C2)=N1 (centres undefined)
inactive: dose: 50.0 mg/kg/injection, schedule: Q01DX009 (ip), vehicle: saline with Tween-80 94 % of control | dose: 50.0 mg/kg/injection, schedule: Q04DX003 (ip), vehicle: saline 97 % of control | dose: 100.0 mg/kg/injection, schedule: Q01DX009 (ip), vehicle: saline with Tween-80 107 % of control | dose: 100.0 mg/kg/injection, schedule: Q04DX003 (ip), vehicle: saline 92 % of control | dose: 200.0 mg/kg/injection, schedule: Q01DX009 (ip), vehicle: saline with Tween-80 100 % of control | dose: 200.0 mg/kg/injection, schedule: Q04DX003 (ip), vehicle: saline 99 % of control | dose: 400.0 mg/kg/injection, schedule: Q01DX009 (ip), vehicle: saline with Tween-80 107 % of control | dose: 400.0 mg/kg/injection, schedule: Q04DX003 (ip), vehicle: saline 91 % of control

O=c1oc(-c2cc([N+](=O)[O-])ccc2Cl)nc2ccccc12
inactive: [4] 100 % of control | [5] 93 % of control

N#Cc1c(N)ncc2c1CCCC2
inactive: [1] 102 % of control | dose: 100.0 mg/kg/injection, schedule: Q01DX009 (ip), vehicle: Klucel (hydroxypropylcellulose) (HPC) 98 % of control | dose: 200.0 mg/kg/injection, schedule: Q01DX009 (ip), vehicle: Klucel (hydroxypropylcellulose) (HPC) 105 % of control

CC1CCCC(c2ccccc2)C1 (centres undefined)
inactive: [6] 97 % of control | [7] 102 % of control | [8] 101 % of control

CCN(Cc1ccccc1)C(=S)Nc1ccccc1
inactive: [2] 96 % of control | [3] 108 % of control | dose: 400.0 mg/kg/injection, schedule: Q04DX002 (ip), vehicle: Klucel (hydroxypropylcellulose) (HPC) 101 % of control

COc1ccc(NC(=O)Nc2ccc(C)c(Cl)c2)cc1
inactive: dose: 100.0 mg/kg/injection, schedule: Q01DX009 (sc), vehicle: olive oil, sesame oil, peanut oil 96 % of control | dose: 100.0 mg/kg/injection, schedule: Q04DX003 (sc), vehicle: olive oil, sesame oil, peanut oil 99 % of control | dose: 200.0 mg/kg/injection, schedule: Q01DX009 (sc), vehicle: olive oil, sesame oil, peanut oil 107 % of control | dose: 200.0 mg/kg/injection, schedule: Q04DX003 (sc), vehicle: olive oil, sesame oil, peanut oil 93 % of control | dose: 400.0 mg/kg/injection, schedule: Q01DX009 (sc), vehicle: olive oil, sesame oil, peanut oil 94 % of control | dose: 400.0 mg/kg/injection, schedule: Q04DX003 (sc), vehicle: olive oil, sesame oil, peanut oil 97 % of control

CC1C(=O)c2cc3c(cc2CCN(C)Cc2c1ccc1c2OCO1)OCO3 (centres undefined)
inactive: dose: 5.0 mg/kg/injection, schedule: Q01DX001 (ip), vehicle: saline 103 % of control | dose: 9.5 mg/kg/injection, schedule: Q01DX001 (ip), vehicle: other 93 % of control | dose: 10.0 mg/kg/injection, schedule: Q01DX001 (ip), vehicle: saline 103 % of control | dose: 19.0 mg/kg/injection, schedule: Q01DX001 (ip), vehicle: other 104 % of control | dose: 20.0 mg/kg/injection, schedule: Q01DX001 (ip), vehicle: saline 101 % of control | dose: 40.0 mg/kg/injection, schedule: Q01DX001 (ip), vehicle: saline 101 % of control

CCCCCCCCCCCc1cccc2ccccc12
inactive: dose: 50.0 mg/kg/injection, schedule: Q04DX002 (ip), vehicle: saline with Tween-80 92 % of control | [12] 89 % of control | [13] 92 % of control | [14] 95 % of control
